16 compounds from BindingDB's records for doi:10.1021/jm00163a033 (University of Massachusetts Medical School, 1990) can be followed below.

For the first experiment, the target named is Thymidine kinase (Human herpesvirus 2). The experiment can be described thus: Inhibition of TdR phosphorylation using thymidine kinase (TK) assay for herpes simplex virus type 2 (HSV-2).
Turning to `O=c1[nH]c(Nc2ccc(Br)cc2)nc2nc[nH]c12`, half-maximal inhibition (IC50) was put at 0.6 µM.

Consider `Cc1ccc(Nc2nc3nc[nH]c3c(=O)[nH]2)cc1`, for which it took 6 µM to reach half-maximal inhibition (IC50).

With `O=c1[nH]c(NCc2ccc(Cl)cc2)nc2nc[nH]c12`, 5.5 µM corresponded to half-maximal inhibition (IC50).

In the case of `O=c1[nH]c(Nc2ccc(F)c(F)c2)nc2nc[nH]c12`, the IC50 (commonly the point on the concentration scale where inhibition reaches its midpoint) came to 2.2 µM.

In turn, `O=c1[nH]c(Nc2ccc(O)cc2)nc2nc[nH]c12` returned an IC50 of 20 µM.

`O=c1[nH]c(Nc2ccc3ccccc3c2)nc2nc[nH]c12`: the IC50 came out at 10 µM. Against the preceding compound, the IC50 is about 2-fold lower.

As for `O=c1[nH]c(Nc2cccc(CO)c2)nc2nc[nH]c12`, the IC50 turned out to be 20 µM.

`CCc1cccc(Nc2nc3nc[nH]c3c(=O)[nH]2)c1` yielded an IC50 of 4 µM.

Consider `O=c1[nH]c(Nc2ccc(Br)c(Br)c2)nc2nc[nH]c12`, for which the IC50 was found to be 1.3 µM.

`O=c1[nH]c(NCCCCCO)nc2nc[nH]c12` gave an IC50 of 40 µM.

`O=c1[nH]c(Nc2ccc(C(F)(F)F)cc2)nc2nc[nH]c12` registered an IC50 of 40 µM.

Compound `O=c1[nH]c(Nc2cccc(Cl)c2)nc2nc[nH]c12` gave an IC50 of 0.35 µM.

Take `O=c1[nH]c(Nc2cccc(C(F)(F)F)c2)nc2nc[nH]c12` [2-(3-Trifluoromethyl-phenylamino)-1,9-dihydro-purin-6-one]: inhibition was half-maximal at 0.1 µM (IC50).

`CCCCCCNc1nc2nc[nH]c2c(=O)[nH]1` [2-Hexylamino-1,9-dihydro-purin-6-one] gave an IC50 of 10 µM.

Compound `O=c1[nH]c(Nc2ccc(F)c(Cl)c2)nc2nc[nH]c12` came in with an IC50 of 2.5 µM.

The target is the same in a further experiment. The description is as above. The source holds these as a separate data set.
Take `CCCCCCNC1=NC(=O)C2N=CN([C@H]3C[C@H](O)[C@@H](CO)O3)C2=N1` (stereo partly specified): affinity was put at a Ki of 2 µM.
